The values below come from patent US11739098B2 (BRISTOL-MYERS SQUIBB COMPANY, priority 2017, dated 2023).

For orientation: pIC50 means −log10 of the IC50, conventionally taken in molar units. Read a high pIC50 as a small IC50.

Type in all cases: cell-based
One assay deals with T1, human TLR8 (Homo sapiens, UniProt Q9NR97).
T1 construct: host or cells: HEK-Blue cells (HEK293-derived reporter line)
T1 sequence (Q9NR97 27-1041): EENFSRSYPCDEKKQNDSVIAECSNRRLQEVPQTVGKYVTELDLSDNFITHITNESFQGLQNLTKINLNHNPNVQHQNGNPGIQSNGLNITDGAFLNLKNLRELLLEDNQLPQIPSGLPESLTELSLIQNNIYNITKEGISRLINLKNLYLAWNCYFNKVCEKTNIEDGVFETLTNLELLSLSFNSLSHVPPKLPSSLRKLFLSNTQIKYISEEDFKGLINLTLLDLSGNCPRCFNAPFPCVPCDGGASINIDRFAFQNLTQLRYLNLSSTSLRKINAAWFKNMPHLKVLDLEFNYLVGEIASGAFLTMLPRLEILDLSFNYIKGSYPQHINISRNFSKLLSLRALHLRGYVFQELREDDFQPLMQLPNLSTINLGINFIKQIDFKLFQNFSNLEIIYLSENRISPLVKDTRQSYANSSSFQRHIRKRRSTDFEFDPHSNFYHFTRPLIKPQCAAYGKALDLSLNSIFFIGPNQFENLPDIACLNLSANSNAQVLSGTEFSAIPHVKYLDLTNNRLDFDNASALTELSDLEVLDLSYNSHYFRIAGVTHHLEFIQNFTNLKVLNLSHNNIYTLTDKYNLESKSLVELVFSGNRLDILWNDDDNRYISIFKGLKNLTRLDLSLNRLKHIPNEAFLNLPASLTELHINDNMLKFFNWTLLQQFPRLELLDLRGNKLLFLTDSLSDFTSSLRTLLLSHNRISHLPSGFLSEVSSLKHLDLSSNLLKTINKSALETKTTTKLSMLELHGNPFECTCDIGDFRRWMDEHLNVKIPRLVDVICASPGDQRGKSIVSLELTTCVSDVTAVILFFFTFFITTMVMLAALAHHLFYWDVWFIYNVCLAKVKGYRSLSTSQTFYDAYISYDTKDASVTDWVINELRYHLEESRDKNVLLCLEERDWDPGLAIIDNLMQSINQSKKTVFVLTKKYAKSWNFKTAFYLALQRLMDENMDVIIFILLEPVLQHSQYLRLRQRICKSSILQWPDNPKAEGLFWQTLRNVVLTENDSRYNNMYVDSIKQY
The assay can be described thus: TLR8 inhibition reporter assay (HEK-Blue cells, SEAP reporter, R848 stimulation). As to conditions: HEK-Blue cells overexpressing human TLR8, SEAP reporter, R848 15.9 μM. In a few lines:
(§1)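 Cells seeded per well (15000 TLR7, 20,000 TLR8, 25,000 TLR9); compound added over 0.05 nM–50 μM for 30 min at room temperature; agonist added (TLR7 gardiquimod 7.5 μM, TLR8 R848 15.9 μM, TLR9 ODN2006 5 nM); 22 h at 37 °C; SEAP measured; percent inhibition calculated.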
A general note: A reporter such as luciferase makes a cellular process visible.

Another assay deals with T2, human TLR7 (Homo sapiens, UniProt Q9NYK1).
T2 construct: host or cells: HEK-Blue cells (HEK293-derived reporter line)
T2 sequence (Q9NYK1 27-1049): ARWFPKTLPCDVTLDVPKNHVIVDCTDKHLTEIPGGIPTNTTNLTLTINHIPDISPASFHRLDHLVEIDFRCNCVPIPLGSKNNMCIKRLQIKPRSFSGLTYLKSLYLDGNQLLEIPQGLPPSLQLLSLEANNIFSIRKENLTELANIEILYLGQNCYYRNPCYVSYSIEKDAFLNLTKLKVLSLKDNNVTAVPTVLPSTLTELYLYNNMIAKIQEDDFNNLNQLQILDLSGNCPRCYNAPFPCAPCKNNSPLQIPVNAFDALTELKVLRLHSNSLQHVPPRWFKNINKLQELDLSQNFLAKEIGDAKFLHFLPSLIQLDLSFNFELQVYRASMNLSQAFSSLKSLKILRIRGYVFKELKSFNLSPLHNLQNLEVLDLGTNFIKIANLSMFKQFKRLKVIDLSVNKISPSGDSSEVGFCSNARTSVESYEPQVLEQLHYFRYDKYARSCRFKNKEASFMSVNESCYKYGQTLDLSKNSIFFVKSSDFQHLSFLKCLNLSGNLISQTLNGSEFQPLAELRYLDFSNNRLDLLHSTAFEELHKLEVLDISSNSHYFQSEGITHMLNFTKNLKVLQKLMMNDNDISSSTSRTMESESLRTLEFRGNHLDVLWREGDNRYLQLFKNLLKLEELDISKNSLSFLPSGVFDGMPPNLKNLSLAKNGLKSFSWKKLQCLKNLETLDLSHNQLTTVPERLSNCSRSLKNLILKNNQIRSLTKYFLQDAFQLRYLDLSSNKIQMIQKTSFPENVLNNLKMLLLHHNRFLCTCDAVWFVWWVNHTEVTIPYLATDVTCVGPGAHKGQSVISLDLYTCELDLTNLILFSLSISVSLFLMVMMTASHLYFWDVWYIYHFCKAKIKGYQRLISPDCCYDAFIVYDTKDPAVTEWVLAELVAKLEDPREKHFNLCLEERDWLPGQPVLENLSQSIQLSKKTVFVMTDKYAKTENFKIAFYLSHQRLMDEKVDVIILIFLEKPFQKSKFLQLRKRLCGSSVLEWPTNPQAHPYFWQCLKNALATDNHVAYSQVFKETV
The assay can be described thus: TLR7 inhibition reporter assay (HEK-Blue cells, SEAP reporter, gardiquimod stimulation). As to conditions: HEK-Blue cells overexpressing human TLR7, SEAP reporter, gardiquimod 7.5 μM. A digest of the protocol:
as §1

Another assay concerns the target T3, human TLR9 (Homo sapiens, UniProt Q9NR96).
T3 construct: host or cells: HEK-Blue cells (HEK293-derived reporter line)
T3 sequence (Q9NR96 26-1032): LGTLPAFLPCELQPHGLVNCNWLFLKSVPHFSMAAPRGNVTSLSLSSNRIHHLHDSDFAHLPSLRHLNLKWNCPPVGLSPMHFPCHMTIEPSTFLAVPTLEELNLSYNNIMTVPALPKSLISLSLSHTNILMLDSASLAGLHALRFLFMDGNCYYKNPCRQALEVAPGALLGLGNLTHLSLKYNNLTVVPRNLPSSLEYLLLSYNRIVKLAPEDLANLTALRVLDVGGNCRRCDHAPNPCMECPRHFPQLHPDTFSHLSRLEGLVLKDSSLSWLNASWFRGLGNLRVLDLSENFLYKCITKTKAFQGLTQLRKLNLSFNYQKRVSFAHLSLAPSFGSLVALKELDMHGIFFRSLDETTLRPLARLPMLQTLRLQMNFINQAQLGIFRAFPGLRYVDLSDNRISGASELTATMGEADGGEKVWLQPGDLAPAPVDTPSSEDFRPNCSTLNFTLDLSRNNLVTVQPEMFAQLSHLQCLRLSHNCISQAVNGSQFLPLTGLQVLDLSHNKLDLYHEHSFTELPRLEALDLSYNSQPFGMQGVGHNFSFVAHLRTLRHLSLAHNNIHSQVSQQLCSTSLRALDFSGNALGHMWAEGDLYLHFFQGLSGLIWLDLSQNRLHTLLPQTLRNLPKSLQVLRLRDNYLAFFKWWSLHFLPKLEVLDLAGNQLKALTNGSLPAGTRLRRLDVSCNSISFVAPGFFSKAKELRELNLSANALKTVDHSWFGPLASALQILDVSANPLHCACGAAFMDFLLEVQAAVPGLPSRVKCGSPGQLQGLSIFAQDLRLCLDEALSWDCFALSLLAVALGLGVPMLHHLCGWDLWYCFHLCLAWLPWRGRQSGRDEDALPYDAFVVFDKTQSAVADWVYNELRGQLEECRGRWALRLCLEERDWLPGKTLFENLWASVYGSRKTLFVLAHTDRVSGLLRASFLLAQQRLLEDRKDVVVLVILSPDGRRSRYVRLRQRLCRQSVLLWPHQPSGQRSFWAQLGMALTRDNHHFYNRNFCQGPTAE
The assay can be described thus: TLR9 inhibition reporter assay (HEK-Blue cells, SEAP reporter, ODN2006 stimulation). The following applies: HEK-Blue cells overexpressing human TLR9, SEAP reporter, ODN2006 5 nM. In a few lines:
as §1

pIC50: −log10 of the molar value.

As for `CCc1c(-c2cnc3ncccn23)[nH]c2ccc(C3CCNCC3)cc12` [Example 29, 3-(3-ethyl-5-(piperidin-4-yl)-1H-indol-2-yl) imidazo[1,2-a]pyrimidine], the results for the pIC50 against human TLR8, at human TLR7 and at human TLR9 were greater than 7.00, 6.00 to 7.00 and 6.00 to 7.00, respectively.

Turning to `CNCCN1CCC(c2ccc3[nH]c(-c4cncc5ccccc45)c(C)c3c2)CC1` [Example 665, 2-(4-(2-(isoquinolin-4-yl)-3-methyl-1H-indol-5-yl)piperidin-1-yl)-N-methylethan-1-amine], the results for the negative-log IC50 (pIC50) at human TLR8, at human TLR7 and against human TLR9 were less than 5.51, less than 4.30 and 6.00 to 7.00, respectively.
